The source of these data is patent publication US20230018245A1, “Skin Whitening Composition Containing Dihydro-5-Methylfuran-2(3h)-One Derivative” (Epi Biotech Co., Ltd., priority 2019, published 2023).

The term IC50 denotes the midpoint of a concentration-inhibition curve.

Data set [1] concerns the target T1, tyrosinase extracted from B16 melanoma cells (Mus musculus, UniProt P11344).
T1 construct: tyrosinase was extracted from B16 melanoma cells and used as an enzyme source; endogenous in cells; host or cells: B16 melanoma cells stimulated with alpha-MSH; cell extract
T1 sequence (P11344 19-533): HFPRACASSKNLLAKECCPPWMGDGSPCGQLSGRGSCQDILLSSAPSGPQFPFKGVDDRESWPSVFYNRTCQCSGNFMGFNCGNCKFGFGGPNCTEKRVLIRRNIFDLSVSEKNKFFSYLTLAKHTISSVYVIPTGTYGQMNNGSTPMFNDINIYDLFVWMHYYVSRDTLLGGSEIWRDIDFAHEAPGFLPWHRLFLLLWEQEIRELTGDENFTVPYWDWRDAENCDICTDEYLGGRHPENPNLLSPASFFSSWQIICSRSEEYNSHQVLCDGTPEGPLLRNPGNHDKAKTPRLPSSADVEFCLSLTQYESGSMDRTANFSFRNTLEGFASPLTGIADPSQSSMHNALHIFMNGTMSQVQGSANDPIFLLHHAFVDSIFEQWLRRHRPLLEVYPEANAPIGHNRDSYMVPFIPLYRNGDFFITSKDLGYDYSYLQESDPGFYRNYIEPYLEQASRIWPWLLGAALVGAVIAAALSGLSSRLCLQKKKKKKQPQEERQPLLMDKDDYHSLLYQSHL
Put plainly: Inhibition of tyrosinase activity, L-DOPA oxidation (Example 5). Type of data set: biochemical. To be noted: tyrosinase and L-DOPA, 37° C., 1 hour, absorbance 475 nm; vs positive control treated with tyrosinase and L-DOPA; FIG. 7. Here is the method: B16 melanoma cells were aliquoted in a 100 mm culture dish at 2×10^5 cells/dish. After 24 hours, the medium from the 100 mm culture dish was removed and treated with DMEM medium containing 10% FBS and a stimulant (α-MSH). After 48 hours, tyrosinase was extracted from B16 melanoma cells and used as an enzyme source. Using the principle that tyrosinase oxidizes L-DOPA to DOPA chrome and DOPA chrome has absorbance at 475 nm, tyrosinase and L-DOPA were incubated at 37° C. for 1 hour and absorbance was measured at 475 nm at 2 minute intervals, so that the production amount of DOPA chrome according to time was measured. The amount of changing 1 nmole of L-DOPA per minute to DOPA chrome was defined as the amount of tyrosinase activity. The tyrosinase inhibitory effect of Compound 2 was evaluated by comparing the group treated with tyrosinase and L-DOPA in combination as a positive control and the group treated with tyrosinase, L-DOPA and Compound 2 in combination.

Data set [2] relates to B16 melanoma cells. Nature of the data set: Cytotoxicity of hydroquinone and Compound 2 by MTT assay (Example 4). The data set is classed as cell-based. To be noted: treated alone, concentration of 10 μM or less; α-MSH 100 nM 76 hours; absorbance 590 nm; FIG. 6. Here is the method:
Using B16 melanoma cells, cytotoxicity was measured by MTT assay when hydroquinone and Compound 2 were treated alone or in combination.
200 μL of B16 melanoma cells were aliquoted in a 96-well plate to 2.7×10^3 cells/well, and then cultured at 37° C., 5% CO2 incubator for 24 hours. B16 melanoma cells were treated with hydroquinone and/or Compound 2 for 2 hours under the same conditions as in Example 3.
Thereafter, α-MSH was treated at a concentration of 100 nM for 76 hours, and absorbance was measured at 590 nm by MTT assay, and the results are shown in FIG. 6.
For orientation: Tetrazolium assays rely on reduction of a dye to a coloured formazan, in cell work by metabolically active cells.

The test system of data set [3] is B16 melanoma cells. Put plainly: Melanogenesis inhibition upon single or combination treatment with hydroquinone (Example 3). The data set is classed as cell-based. Here is the method:
Using B16 melanoma cells, melanogenesis inhibition and melanosome degradation effect were confirmed upon single or combination treatment with hydroquinone and the compound of the present invention.
B16 melanoma cells were treated alone or in combination with hydroquinone and/or a compound of the present invention for 2 hours under the following conditions.
(i) Compound 2: 1, 3, 10 μM single administration
(ii) Hydroquinone: 1, 3, 10 μM single administration
(iii) Compound 2 (1, 3, 10 μM)+Hydroquinone (5 μM)
Thereafter, α-MSH was treated at a concentration of 100 nM for 76 hours.
After 72 hours, absorbance was measured at 405 nm to quantify the amount of melanin released into the medium, and the inhibition rate was calculated and shown in FIG. 5.

No end group written: not given here.

As to `OC[C@H]1O[C@@H](Oc2ccc(O)cc2)[C@H](O)[C@@H](O)[C@@H]1O` [Arbutin], the “inhibition of tyrosinase activity” value in data set [1] is on record as “inhibited the activity of tyrosinase”.
Consider `Oc1ccc(O)cc1` [hydroquinone, Benzene-1,4-diol], for which the “cell viability / cytotoxicity (MTT assay)” value in the data set with B16 melanoma cells [2] is given as “no cytotoxicity”. Also, in the data set on B16 melanoma cells [3] (Mus musculus, B16, single treatment, based on the amount of melanogenesis in the positive control group (α-MSH 100 nM)), the IC50 amounted to 7.7 µM. Further, the “melanogenesis inhibition and melanosome degradation effect” value in the data set with B16 melanoma cells [3] (treated alone, 1, 3, 10 μM, α-MSH 100 nM, FIG. 5) was “dose-dependently increased”.
As to “α-melanocyte stimulating hormone (SYSMEHFRWGKPV; ends and bridges not checked; UniProt P01189 138-150, looked up) [α-MSH, agonist that stimulates melanogenesis; used as the stimulant / positive control]”, the “increase of the amount of melanin” value in the data set on B16 melanoma cells [3] (positive control treated with α-MSH 100 nM) is listed as 16.5 times.
